Reference: the supplement of paper PMC11061612

Legend:
[1] = system: KP-4 (Pancreatic Carcinoma); assay: Bliss excess, mean over the matrix (fraction); higher = more synergy
Method in brief: (§1)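 After 24 hours at 37°C and 5% CO2 in 1536-well plates, cells in DMEM/F12 or RPMI plus 10% FBS received two-drug dose matrices for 72 hours. Viability came from CellTiter-Glo 2.0 luminescence and was scaled as inhibition, anchored at 0 by vehicle wells and at 1 by blank wells. Combination Emax is taken as the second-highest inhibition in the matrix, and Bliss excess as the observed combination effect less EA + EB − EA·EB, with EA and EB the single-agent effects.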

[2] = system: BxPC-3 (Pancreatic Carcinoma); assay: combination Emax (second highest fraction inhibited in the dose matrix, 72 h); higher = more inhibition; extreme values may be limits of the assay
Method in brief: as §1

[3] = system: COR-L88 (Small Cell Lung Carcinoma); assay: as above
Method in brief: as §1

[4] = system: CPC-N (Small Cell Lung Carcinoma); assay: as above
Method in brief: as §1

[5] = system: HPAF-II (Pancreatic Carcinoma); assay: as above
Method in brief: as §1

[6] = system: IA-LM (Non-Small Cell Lung Carcinoma); assay: as above
Method in brief: as §1

KALS-1 (Glioblastoma) = assay: as above
Method in brief: as §1

[7] = system: KP-4 (Pancreatic Carcinoma); assay: as above
Method in brief: as §1

[8] = system: MS-1 (Small Cell Lung Carcinoma); assay: as above
Method in brief: as §1

[9] = system: NCI-H3118 (Head and Neck Carcinoma); assay: as above
Method in brief: as §1

SK-N-SH (Neuroblastoma) = assay: as above
Method in brief: as §1

[10] = system: SNU-423 (Hepatocellular Carcinoma); assay: as above
Method in brief: as §1

[11] = system: T84 (Colorectal Carcinoma); assay: as above
Method in brief: as §1

[12] = system: ZR-75-30 (Breast Carcinoma); assay: as above
Method in brief: as §1

[13] = system: NCI-H1876 (Small Cell Lung Carcinoma); assay: Bliss excess, mean over the matrix (fraction); higher = more synergy
Method in brief: as §1

[14] = system: NCI-H596 (Other Solid Carcinomas); assay: as above
Method in brief: as §1

[15] = system: OAW-28 (Ovarian Carcinoma); assay: as above
Method in brief: as §1

[16] = system: SNU-407 (Colorectal Carcinoma); assay: as above
Method in brief: as §1

[17] = system: NCI-H1876 (Small Cell Lung Carcinoma); assay: combination Emax (second highest fraction inhibited in the dose matrix, 72 h); higher = more inhibition; extreme values may be limits of the assay
Method in brief: as §1

[18] = system: SNU-407 (Colorectal Carcinoma); assay: as above
Method in brief: as §1
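Throughout, for Bliss excess, mean over the matrix: after 72 h of two-drug dosing.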

SMILES | Bliss excess [1] | combination Emax [2] | combination Emax [3] | combination Emax [4] | combination Emax [5] | combination Emax [6] | combination Emax (KALS-1 (Glioblastoma)) | combination Emax [7] | combination Emax [8] | combination Emax [9] | combination Emax (SK-N-SH (Neuroblastoma)) | combination Emax [10] | combination Emax [11] | combination Emax [12] | Bliss excess [13] | Bliss excess [14] | Bliss excess [15] | Bliss excess [16] | combination Emax [17] | combination Emax [18]
C[C@@H](Oc1cc(-c2cnn(C3CCNCC3)c2)cnc1N)c1c(Cl)ccc(F)c1Cl [Crizotinib] + CC1=C(C(=CC=C1)Cl)NC(=O)C2=CN=C(S2)NC3=CC(=NC(=N3)C)N4CCN(CC4)CCO [Dasatinib] (first compound max 10 µM, 7x7, partner max 2 µM) | 0.0493 | 0.938 | 0.435 | 0.584 | 0.431 | 0.601 | 0.925 | 0.848 | 0.686 | 0.881 | 0.859 | 0.934 | 0.58 | 0.036 |  |  |  |  |  | 
C[C@@H](Oc1cc(-c2cnn(C3CCNCC3)c2)cnc1N)c1c(Cl)ccc(F)c1Cl [Crizotinib] + Cn1cnc2c(F)c(Nc3ccc(Br)cc3Cl)c(C(=O)NOCCO)cc21 [Selumetinib] (first compound max 10 µM, 7x7, partner max 10 µM) | 0.0259 | 0.439 | 0.409 | 0.62 | 0.687 | 0.245 | 0.538 | 0.838 | 0.791 | 0.627 | 0.854 | 0.823 | 0.576 | 0.0695 |  |  |  |  |  | 
CS(=O)(=O)CCNCc1ccc(-c2ccc3ncnc(Nc4ccc(OCc5cccc(F)c5)c(Cl)c4)c3c2)o1 [Lapatinib] + Cn1cnc2c(F)c(Nc3ccc(Br)cc3Cl)c(C(=O)NOCCO)cc21 [Selumetinib] (first compound max 10 µM, 7x7, partner max 10 µM) | 0.0641 | 0.909 | 0.215 | 0.251 | 0.877 | 0.318 | 0.575 | 0.382 | 0.489 | 0.653 | 0.398 | 0.508 | 0.763 | 0.807 |  |  |  |  |  | 
CS(=O)(=O)CCNCc1ccc(-c2ccc3ncnc(Nc4ccc(OCc5cccc(F)c5)c(Cl)c4)c3c2)o1 [Lapatinib] + NC1(c2ccc(-c3nc4ccn5c(=O)[nH]nc5c4cc3-c3ccccc3)cc2)CCC1 [MK-2206] (first compound max 10 µM, 7x7, partner max 10 µM) | -0.0389 | 0.614 | 0.812 | 0.847 | 0.402 | 0.487 | 0.718 | 0.275 | 0.926 | 0.783 | 0.921 | 0.912 | 0.832 | 0.912 | 0.0885 | -0.045 | 0.0285 | 0.0808 | 0.948 | 0.808
O=C(c1cc(Cc2n[nH]c(=O)c3ccccc23)ccc1F)N1CCN(C(=O)C2CC2)CC1 [Olaparib] + CC1(C)CCC(CN2CCN(c3ccc(C(=O)NS(=O)(=O)c4ccc(NCC5CCOCC5)c([N+](=O)[O-])c4)c(Oc4cnc5[nH]ccc5c4)c3)CC2)=C(c2ccc(Cl)cc2)C1 [Venetoclax] (first compound max 10 µM, 7x7, partner max 1 µM) | -0.0331 | 0.148 | 0.373 | 0.166 | 0.119 | 0.155 | 0.118 | 0.135 | 0.453 | 0.153 | 0.545 | 0.115 | 0.065 | 0.158 |  |  |  |  |  | 
O=C(c1cc(Cc2n[nH]c(=O)c3ccccc23)ccc1F)N1CCN(C(=O)C2CC2)CC1 [Olaparib] + CN(CC[C@H](CSC1=CC=CC=C1)NC2=C(C=C(C=C2)S(=O)(=O)NC(=O)C3=CC=C(C=C3)N4CCC(CC4)[C@H](C5=CC=CC=C5C6=CC=C(C=C6)Cl)O)S(=O)(=O)C(F)(F)F)CCO [AZD4320] (first compound max 10 µM, 7x7, partner max 1 µM) | -0.0113 | 0.148 | 0.961 | 0.856 | 0.796 | 0.328 | 0.156 | 0.155 | 0.636 | 0.155 | 0.688 | 0.236 | 0.122 | 0.149 |  |  |  |  |  | 
O=C(c1cc(Cc2n[nH]c(=O)c3ccccc23)ccc1F)N1CCN(C(=O)C2CC2)CC1 [Olaparib] + COc1nnc2ccc(N3CCC(c4ccc(OCCN5CCN(C)C(=O)[C@H]5C)cc4)CC3)nn12 [AZD5153] (first compound max 10 µM, 7x7, partner max 1 µM) | -0.0266 | 0.403 | 0.214 | 0.369 | 0.334 | 0.352 | 0.548 | 0.532 | 0.757 | 0.519 | 0.428 | 0.302 | 0.0881 | 0.207 |  |  |  |  |  | 
O=C(c1cc(Cc2n[nH]c(=O)c3ccccc23)ccc1F)N1CCN(C(=O)C2CC2)CC1 [Olaparib] + Cc1c2c(nn1C)CSCc1cc(n(C)n1)CSc1cc(c3ccccc3c1)OCCCc1c(C(=O)O)n(C)c3c-2c(Cl)ccc13 [AZD5991] (first compound max 10 µM, 7x7, partner max 1 µM) | -0.0386 | 0.043 | 0.227 | 0.215 | 0.0669 | 0.0022 | 0.163 | 0.113 | 0.501 | 0.352 | 0.333 | 0.16 | 0.111 | 0.197 |  |  |  |  |  | 
N#Cc1cnc(Nc2cc(NC[C@H]3CNCCO3)c(C(F)(F)F)cn2)cn1 [SRA737] + O=c1[nH]cc(F)c(=O)[nH]1 [5-Fluorouracil] (first compound max 10 µM, 7x7, partner max 20 µM) | 0.0334 | 0.555 | 0.435 | 0.861 | 0.436 | 0.0378 | 0.792 | 0.376 | 0.584 | 0.575 | 0.57 | 0.477 | 0.785 | 0.169 |  |  |  |  |  | 
Cc1nc(-c2cn3c(n2)-c2ccc(-c4cnn(C(C)(C)C(N)=O)c4)cc2OCC3)n(C(C)C)n1 [Taselisib] + O=C(Nc1ccc2[nH]nc(-c3ccncc3)c2c1)[C@@H]1CCN(CC(=O)N2CCN(c3ccc(-c4ncccn4)cc3)CC2)C1 [SCH772984] (first compound max 10 µM, 7x7, partner max 5 µM) | 0.215 | 0.956 | 0.229 | 0.484 | 0.917 | 0.399 | 0.927 | 0.776 | 0.48 | 0.931 | 0.72 | 0.82 | 0.96 | 0.706 |  |  |  |  |  | 
CC1(C)CCC(CN2CCN(c3ccc(C(=O)NS(=O)(=O)c4ccc(NCC5CCOCC5)c([N+](=O)[O-])c4)c(Oc4cnc5[nH]ccc5c4)c3)CC2)=C(c2ccc(Cl)cc2)C1 [Venetoclax] + CS(=O)(=O)CCNCc1ccc(-c2ccc3ncnc(Nc4ccc(OCc5cccc(F)c5)c(Cl)c4)c3c2)o1 [Lapatinib] (first compound max 1 µM, 7x7, partner max 10 µM) | -0.0168 | 0.244 | 0.534 | 0.148 | 0.192 | 0.207 | 0.223 | 0.0862 | 0.473 | 0.468 | 0.509 | 0.246 | 0.25 | 0.823 |  |  |  |  |  | 
